Data set [1] concerns B16F10-Cas9 cells pulsed with SIINFEKL peptide, co-cultured with OT-I T cells. Kind of data set: Genome-scale CRISPR-Cas9 screen, selection with OT-I T cells. In kind it is cell-based, mouse. The settings on record: for OT1 (sgRNA Log(2) fold change, OT-I selection versus control T cells): Table 3, B16F10-Cas9 cells pulsed with SIINFEKL, co-cultured with OT-I T cells 1:1 for one day, negative = depleted, positive = enriched; for logFC: Log2 fold change of gRNAs per gene, OT-I screen, genes depleted (FDR < 0.05).

For data set [2], the system named is B16F10-Cas9 cells co-cultured with Pmel-1 T cells. Kind of data set: Genome-scale CRISPR-Cas9 screen, selection with Pmel-1 T cells. The class given is cell-based, mouse. Particulars: for Pmel+ (sgRNA Log(2) fold change, Pmel-1 selection versus control T cells): Table 3, B16F10-Cas9 cells pre-treated with IFNγ, co-cultured with Pmel-1 T cells 1:1 for three days, negative = depleted, positive = enriched; for logFC: Log(2) fold change of gRNAs per gene, genes depleted in Pmel-1 screen.

Regarding “ACTTCTGATTGGCGATTCTG (chemistry not fully specified)”, the “OT1 (sgRNA Log(2) fold change, OT-I selection versus control T cells)” value in data set [1] is given as -3.78. The “Pmel+ (sgRNA Log(2) fold change, Pmel-1 selection versus control T cells)” value in data set [2] is -2.49. Taken in the same sequence, the figures for “TGATGCTGGCCTCTATACTG (chemistry not fully specified)” were -3.28 and -1.90.

For the substance “ATGTTGCCATCGTCACTGCA (chemistry not fully specified)”, the “OT1 (sgRNA Log(2) fold change, OT-I selection versus control T cells)” value in data set [1] was determined as 0.41. In data set [2], the “Pmel+ (sgRNA Log(2) fold change, Pmel-1 selection versus control T cells)” value is listed as 3.04. Taken in the same sequence, the figures for “TTGTGCCTAAACAAAAAACA (chemistry not fully specified)” were -2.52 and 0.85. For “GTGAGCCTGAGGAACCTGCT (chemistry not fully specified)”, in that order: 1.01 and 3.08. Regarding “AATGCTGACGACTTTCAATG (chemistry not fully specified)”, in data set [1], the “OT1 (sgRNA Log(2) fold change, OT-I selection versus control T cells)” value was -2.31. Besides, the “Pmel+ (sgRNA Log(2) fold change, Pmel-1 selection versus control T cells)” value in data set [2] is given as 0.00. Taken in the same sequence, the figures for “GAAGACCAAAGAAGTTCATG (chemistry not fully specified)” were -0.52 and 2.37.

As to “ATTTGGATTTCAATGTGAGG (chemistry not fully specified)”, the “OT1 (sgRNA Log(2) fold change, OT-I selection versus control T cells)” value in data set [1] came out at 5.19. In addition, the “Pmel+ (sgRNA Log(2) fold change, Pmel-1 selection versus control T cells)” value in data set [2] was found to be 3.20.

As for “CCATTGTATAACTGTCTGCG (chemistry not fully specified)”, in data set [1], the “OT1 (sgRNA Log(2) fold change, OT-I selection versus control T cells)” value was -3.02. In data set [2], the “Pmel+ (sgRNA Log(2) fold change, Pmel-1 selection versus control T cells)” value is -1.14. Taken in the same sequence, the figures for “GCTCACCACGGGCTGCAACG (chemistry not fully specified)” were 0.43 and 2.34. Turning to “TGTGATGTTAGATAAACAGA (chemistry not fully specified)”, the “OT1 (sgRNA Log(2) fold change, OT-I selection versus control T cells)” value in data set [1] is listed as 1.50. The “Pmel+ (sgRNA Log(2) fold change, Pmel-1 selection versus control T cells)” value in data set [2] is reported as 7.91. For “CCCGGGAATAGCGTACAGCT (chemistry not fully specified)”, the “OT1 (sgRNA Log(2) fold change, OT-I selection versus control T cells)” value in data set [1] is recorded as -2.71. Further, in data set [2], the “Pmel+ (sgRNA Log(2) fold change, Pmel-1 selection versus control T cells)” value is reported as 0.70. Turning to “CCGCAGCAGATAGACACCAT (chemistry not fully specified)”, in data set [1], the “OT1 (sgRNA Log(2) fold change, OT-I selection versus control T cells)” value was -2.54. Also, in data set [2], the “Pmel+ (sgRNA Log(2) fold change, Pmel-1 selection versus control T cells)” value was -0.11. Taken in the same sequence, the figures for “ATGGGATTGATCGTTACTGG (chemistry not fully specified)” were -2.32 and 0.00. For “CTTCAGATCTCTCTCGAATG (chemistry not fully specified)”, in that order: -2.84 and -2.11. Turning to “GAAGTAAAGGGATTTAACAG (chemistry not fully specified)”, the “OT1 (sgRNA Log(2) fold change, OT-I selection versus control T cells)” value in data set [1] is reported as -2.59. For the same substance, in data set [2], the “Pmel+ (sgRNA Log(2) fold change, Pmel-1 selection versus control T cells)” value was -0.84. Taken in the same sequence, the figures for “TCTTAAAGCTACGGTGTAAG (chemistry not fully specified)” were -2.41 and -0.87. For the substance “GAATCTGAATGGAGGAACCT (chemistry not fully specified)”, the “OT1 (sgRNA Log(2) fold change, OT-I selection versus control T cells)” value in data set [1] is recorded as -2.21. Moreover, the “Pmel+ (sgRNA Log(2) fold change, Pmel-1 selection versus control T cells)” value in data set [2] was found to be 0.00.

Regarding “TGGAATTATGGTCAAAGTAG (chemistry not fully specified)”, in data set [1], the “OT1 (sgRNA Log(2) fold change, OT-I selection versus control T cells)” value is given as -2.20. Moreover, in data set [2], the “Pmel+ (sgRNA Log(2) fold change, Pmel-1 selection versus control T cells)” value amounted to 0.96. Taken in the same sequence, the figures for “ACCTCCGAATGATCAATGGG (chemistry not fully specified)” were -2.52 and -0.84. Taken in the same sequence, the figures for “GCACTGCTCTCATAACCCAT (chemistry not fully specified)” were -0.77 and 3.01. For “GCAAGAGGTTATCAAACACG (chemistry not fully specified)”, in that order: -2.17 and -0.79. In the case of “TAAAAGTCCCTCCCTCAAAG (chemistry not fully specified)”, in data set [1], the “OT1 (sgRNA Log(2) fold change, OT-I selection versus control T cells)” value is -2.56. The “Pmel+ (sgRNA Log(2) fold change, Pmel-1 selection versus control T cells)” value in data set [2] turned out to be 0.00.

Turning to “AAACAAGAGCACACTCCCCG (chemistry not fully specified)”, the “OT1 (sgRNA Log(2) fold change, OT-I selection versus control T cells)” value in data set [1] is -2.06. Besides, the “Pmel+ (sgRNA Log(2) fold change, Pmel-1 selection versus control T cells)” value in data set [2] amounted to 1.49.

“GGATAGACGCCCAGCCACTG (chemistry not fully specified)”: in data set [1], the “OT1 (sgRNA Log(2) fold change, OT-I selection versus control T cells)” value came to 3.32. For the same substance, the “Pmel+ (sgRNA Log(2) fold change, Pmel-1 selection versus control T cells)” value in data set [2] is given as 9.31.

In the case of “AAGTCCTAGATAAAGCACAT (chemistry not fully specified)”, the “OT1 (sgRNA Log(2) fold change, OT-I selection versus control T cells)” value in data set [1] is 3.13. Moreover, the “Pmel+ (sgRNA Log(2) fold change, Pmel-1 selection versus control T cells)” value in data set [2] is 3.43. For “AGTTGGATCGCGAATAAAGA (chemistry not fully specified)”, in that order: -2.70 and -2.35.

For the substance “ATCACCTGGAGCATGCAGGA (chemistry not fully specified)”, the “OT1 (sgRNA Log(2) fold change, OT-I selection versus control T cells)” value in data set [1] is given as -0.29. For the same substance, the “Pmel+ (sgRNA Log(2) fold change, Pmel-1 selection versus control T cells)” value in data set [2] stood at 2.72. Taken in the same sequence, the figures for “GTTTCTGGCATCCAAAGTAG (chemistry not fully specified)” were -2.50 and 0.80. Take “AGTTTGGAGCCCAGTAGGCA (chemistry not fully specified)”: the “OT1 (sgRNA Log(2) fold change, OT-I selection versus control T cells)” value in data set [1] is -2.77. In addition, in data set [2], the “Pmel+ (sgRNA Log(2) fold change, Pmel-1 selection versus control T cells)” value is given as -2.19.

In data set [1], “Chic2 (guide GCTCAAGTACTCGCCCGACC; chemistry not fully specified)” had a logFC of −2.09.

Regarding “Nudcd2 (guide GGTTCCTTGCGGGACTCCGT; chemistry not fully specified)”, the logFC in data set [1] is −2.09. For the substance “Sepsecs (guide CACCGGATCGTCCAATTCCG; chemistry not fully specified)”, the logFC in data set [1] is recorded as −2.62. Same read-out and setting: as for Ctps, the figure is −1.69; as for “Mrps21 (guide GCGTCGTCGACTTATGACTT; chemistry not fully specified)”, −2.09. Substance “Cd36 (guide TAGGATATGGAACCAAACTG; chemistry not fully specified)” returned a logFC in data set [2] of −2.18.

The substance “Tial1 (guide AATGCAATTGTGCATATGGG; chemistry not fully specified)” yielded a logFC in data set [2] of −2.01.

Source of the values: patent publication US11820822B2, “Methods for sensitizing cancer cells to T cell-mediated killing by modulating molecular pathways” (DANA-FARBER CANCER INSTITUTE, INC., priority 2017, dated 2023).
